{
  "source": "patent US11154551B2",
  "about": "“HDAC1,2 inhibitors and methods of using the same” (UNIVERSITY OF UTAH RESEARCH FOUNDATION, priority 2014, dated 2021)",
  "key": {"[1]": {"test_system": "normal NOD-SCID-Gamma mice", "conditions": "mouse"}, "[2]": {"test_system": "normal NOD-SCID-Gamma mice", "experiment": "hematoxylin and eosin staining of bone marrow and spleen, toxicity", "conditions": "25 mg/kg ACY1035 (fifteen doses) or 0.5 mg/kg doxorubicin (six doses)"}, "[3]": {"test_system": "Ph+ALL patient derived xenograft", "experiment": "Ph+ALL patient-derived xenograft mouse model", "assay_type": "in vivo", "conditions": "for human CD45 and CD19 markers in bone marrow: 25 mg/kg ACY1035 every other day i.p., 0.25 mg/kg doxorubicin once a week i.v., vs solvent; for white cell burden: vs solvent-treated mice", "procedure": "Patient-derived xenograft mice were treated with either cyclodextrin (solvent) or 25 mg/kg ACY1035 every other day for a total of 21 doses. (A) The level of human CD19, CD45, and CD34 markers were assessed in the bone marrow of these mice by FACS analysis. For each FACS marker, the bars represent (from left to right): solvent, ACY1035, doxorubicin, ACY1035+doxorubicin. (B) Solvent-treated mice have bones infiltrated with white blood cells.\nAdditional experiments were performed to assess the therapeutic benefits of HDAC1,2 inhibition in vivo using primary Ph+ALL patient derived xenograft mouse models. NOD/SCID mice were irradiated with a sub lethal dose of irradiation to ablate the immune system in these mice. Immune-compromised NSG mice were then injected with 2×10^6 CD34+ cells isolated from a Ph+ ALL patient. Bone and spleens were harvested from these primary xenograft mice when the leukemia burden reached the maximum 90-95% level as determined by FACS analysis for human CD19 and CD45 markers. Cells isolated from bone marrow and spleen of these primary xenograft mice were frozen in liquid nitrogen until use. A mixture of bone marrow and spleen cells from the primary xenograft mice was then injected into a cohort of sub-lethally irradiated NOD/SCID mice. Mice were divided into four treatment groups: solvent, ACY1035, doxorubicin, and ACY1035 plus doxorubicin. Xenograft mice were injected according to one of the four treatment groups after 5 days post-xenograft induction, when human CD45 marker reached around 5-10% in the peripheral blood. Mice were injected with 25 mg/kg ACY1035 every other day via i.p. and 0.25 mg/kg doxorubicin once a week via i.v., a dosing schedule that has minimal toxicity in immune compromised mice.\nIn this PDX model, the majority of leukemia cells homed in the bone marrow and not spleen. […] Furthermore, a decrease in human CD34+ stem/progenitor cells was observed similar to the results obtained from in vitro studies (FIG. 33A). […] The disclosed mechanistic and preclinical results provide strong evidence that HDAC1,2 inhibition or HDAC1,2 inhibition in combination with doxorubicin can provide a very potent therapeutic for Ph+PreB-ALL."}, "[4]": {"test_system": "doxorubicin-resistant EZH2GOF DLBCL (Karpas-422/NSG)", "experiment": "Karpas-422/NSG xenograft mouse model", "assay_type": "in vivo", "conditions": "seventeen doses of ACY1035, five doses of doxorubicin", "procedure": "(C) FACS analyses of human CD19 and IgM markers in peripheral blood of Karpas-422/NSG xenograft mice treated with solvent or doxorubicin (Doxo) or the HDAC1,2 inhibitor ACY1035 (H12IN). Seventeen doses of HDAC1,2 inhibitor and five doses of doxorubicin were administered.\nThe in vivo testing used a doxorubicin-resistant EZH2^GOF DLBCL (Karpas-422/NSG) mouse model and a doxorubicin-sensitive EZH2^WT DLBCL (SUDHL8/NSG) mouse model (FIG. 36). To create these models, NOD-SCID-Gamma (NSG) mice were injected intravenously (i.v.) with 1×10^6 Karpas-422 cells (chemoresistant and expressing the EZH2 gain-of-function mutant) or SUDHL8 cells (chemosensitive and expressing wild-type EZH2)."}, "SupB15 cells [5]": {"test_system": "SupB15 cells", "experiment": "neutral comet assay", "assay_type": "cell-based, human", "conditions": "48 hours", "procedure": "(§1) SupB15 cells were treated with 2 μM ACY1035, ACY1071, ACY957, or solvent (DMSO) for 48 hours. (A) Immunofluorescence with γH2AX was performed on treated SupB15 cells. The number of γH2AX foci was counted in around 100 cells for each treatment and classified into cells with no foci, 1-5, 6-10, and greater than 10 foci. (B) SupB15 cells treated with DMSO or ACY1035 for 48 hours were tested via neutral comet assay to measure the amount of double-strand breaks (DSBs), indicated by the tail.\nWe next asked whether double-strand break repair is impaired in SupB15 cells. We used neutral comet assays to measure the efficiency of double-strand break repair following treatment with ACY1035 for 48 hours. The neutral comet assay specifically measures double-strand breaks and not single-strand breaks. In this assay, control and HDAC1,2 inhibitor treated SupB15 cells were embedded in low melting agarose and subjected to electrophoresis to separate damaged DNA from intact DNA. Damaged DNA runs faster and therefore forms a tail, and the intact DNA is present in the head (FIG. 24B). DNA was visualized with sybrgreen staining."}, "SupB15 cells [6]": {"test_system": "SupB15 cells", "experiment": "BrdU ChIP assay, γH2AX on nascent chromatin", "assay_type": "cell-based, human", "text": "The majority of chromatin-bound proteins that decreased following ACY1035 plus doxorubicin treatment compared to ACY1035 treatment alone belong to DNA replication and DNA replication-associated repair processes (FIGS. 29A and 29B)."}, "Hdac1,2": {"test_system": "Hdac1,2", "experiment": "in vitro enzyme assays, IC50 determination (FIG. 17A)", "assay_type": "biochemical", "procedure": "(A). For IC50 determination, recombinant HDAC enzymes were treated with HDAC1,2 or HDAC3 inhibitors in in vitro HDAC assays. (B). Western blots for H3K23ac using extracts from Pre-B-ALL SupB15 cells treated with increasing dose of HDAC1,2 inhibitor (ACY1035). (C). Hdac1^FI/FI, 2^FI/FI cells were infected with Ad-Cre virus to delete HDAC1 and HDAC2 (HDAC1,2 null) or uninfected (WT). (D). Hdac3^FI/FI cells were either uninfected (WT) or infected with Ad-Cre virus to delete Hdac3. HDAC3-null cells were treated with DMSO or the HDAC1,2 selective inhibitor.\nWe have determined 2 μM (FIG. 17B) as the minimum dose for the ACY compounds, respectively, that when added to cells increased H3K23ac (a mark targeted by Hdac1,2 but not Hdac3)."}, "[7]": {"test_system": "SupB15 (Ph+PreB-ALL) cells", "experiment": "γH2AX immunofluorescence", "assay_type": "cell-based, human", "conditions": "2 μM, 48 hours", "procedure": "as §1\nBCR-ABL promotes DNA repair to prevent DNA damage accumulation in Philadelphia chromosome-positive (Ph+) leukemia cells. To examine the effect of various HDAC1,2-selective inhibitors on DNA repair and DNA damage response in Pre-B-ALL cells that express BCR-ABL, SupB15 (Ph+PreB-ALL) cells were treated with 2 μM ACY1035 or 2 μM ACY1071 or 2 μM ACY957 for 48 hours."}, "[8]": {"test_system": "non-transformed, mouse bone marrow Pro-B derived Baf3 cells or cord blood stem cells", "experiment": "cell death in non-transformed cells", "assay_type": "cell-based", "conditions": "2 μM, within 72 hr", "text": "Therefore, transformed lymphoma cells are more sensitive to HDAC1,2 inhibition when compared to the untransformed normal B-cells. HDAC1,2 inhibitor causes replication fork collapse in S-phase to trigger DNA damage response, and transformed cancer cells have increased DNA replication when compared to normal B cells. […] In addition to this property, EZH2^GOF DLBCL cells also have increased DNA repair compared to EZH2^WT DLBCL cells (FIG. 34A), which can also be targeted by HDAC1,2 inhibitor as it impairs the HDAC1,2 regulated DNA repair processes used by EZH2^GOF DLBCL cells for their survival."}, "Karpas-422 cells": {"test_system": "Karpas-422 cells", "experiment": "propidium-iodide / BrdU-PI cell cycle analysis", "assay_type": "cell-based, human", "conditions": "48 h", "procedure": "(B): Quantitation of the cell cycle data in (A), compiled from three independent analyses. The graphs plotted the average percentage of cells in each phase of the cell cycle. […] (C): FACS analysis following BrdU-PI staining of Karpas-422 and SUDHL4 cells was performed following a 48 h or 72 h treatment with ACY-957.\nCell cycle analysis of propidium-iodide stained cells was performed with fixed cells. […] (C): FACS analysis following BrdU-PI staining of Karpas-422 and SUDHL4 cells was performed following a treatment with 2 μM ACY-957, 50 nM doxorubicin or both for 48 h.\n(B): Quantitation of the cell cycle analysis performed in (A). Data from three independent cell cycle analyses were compiled and average percentage cells with standard errors were shown in this panel.\nPropidium-iodide Cell Cycle Analysis.\nSince these DLBCL cells expressed a hyperactive form of EZH2, pharmacological inhibition of EZH2 activity was considered a therapeutic strategy. […] GSK126 was a S-adenosyl-methionine-competitive inhibitor of EZH2 methyltransferase activity, and DZNep was a S-adenosylhomocysteine hydrolase inhibitor that disrupted the components of the PRC2 complex, thereby causing reduced chromatin-associated EZH2 levels.\nTo test this possibility, cell cycle analysis following treatment of Karpas-422 with ACY-957, doxorubicin, or ACY-957 in combination with doxorubicin was performed."}, "[9]": {"test_system": "SupB15 Pre-B-ALL leukemia xenograft", "experiment": "SupB15 Pre-B-ALL leukemia xenograft mice", "assay_type": "in vivo, mouse", "conditions": "same concentration of doxorubicin", "quoted_text": "Pre-B-ALL cell lines as well as Ph+ALL primary patient samples were engrafted in NOD scid gamma (NSG) mice to examine the efficacy of Hdac1,2 inhibitor in killing cells in vivo. We injected NSG mice with SupB15 cells (1×10^6) and Ph+Pre-B-ALL primary patient cells and monitored engraftment by flow cytometry using anti-human CD45/CD19 antibodies every week for 4-5 weeks. […] To examine the extent of leukemia infiltration in spleen and bone marrow, we performed IHC analysis."}, "[10]": {"test_system": "Karpas-422 (EZH2GOF) cells", "experiment": "neutral comet assay of DSB repair", "assay_type": "cell-based, human", "text": "(A) Measurement of repair efficiency in SUDHL5 (EZH2^WT) and Karpas-422 (EZH2^GOF) cells using neutral comet assay that detects only double-strand breaks (DSBs). In the comet, the head (H) represents intact DNA and the tail (T) represents the number of DSBs in a single cell. Tail moment is a measure of length and intensity of DNA in the tail, and the average tail moments from 100 comets are indicated within the figure for each cell/treatment combination. Doxo indicates doxorubicin; H121N indicates HDAC1,2 inhibitor. (B) DNA damage in EZH2GOF cells following knockdown of HDAC1,2 using siRNA. NT indicates non-targeting control siRNA; HDAC1,2 siRNA indicates combined treatment with HDAC1 siRNA and HDAC2 siRNA. (C) Karpas-422 cells treated with DMSO solvent or HDAC1,2 inhibitor were subjected to microlaser irradiation. H3K27me3, γH2AX, Bmi-1, and serine2-phosphorylated RNA Polymerase II (engaged in transcriptional elongation) were monitored at laser break sites (arrows) after 15 minutes of recovery time. Numbers overlaying the images indicate percentages of cells with γH2AX lines that co-localized with H3K27me3, Bmi-1, or Pol2Ser2-P lines from at least four independent experiments (p value<0.01).\nIndeed, EZH2, H3K27me3, and HDAC1,2 all localize to sites of DNA breaks, which links them to DNA repair. […]"}},
  "note": "Entries after “also recorded” stand apart in the source; their conditions may differ.",
  "data": [
    {"smiles": "Nc1ccc(-c2cccs2)cc1NC(=O)c1ccc2c(c1)cc(C1CC1)n2CCN1CCOCC1", "note": "[ACY-1035, N-(2-amino-5-(thiophen-2-yl)phenyl)-2-cyclopropyl-1-(2-morpholinoethyl)-1H-indole-5-carboxamide]", "values": [
      {"measurement": "toxic effects in vivo", "setting": "[1]", "result": "does not have toxic effects in vivo"},
      {"measurement": "morphology of bone marrow and spleen cells", "setting": "[2]", "result": "No changes in the morphology of spleen or bone marrow cells; also recorded: no abnormalities or changes in the cell morphology in bone marrow or spleens"},
      {"measurement": "human CD45 and CD19 markers in bone marrow", "setting": "[3]", "result": "significant reduction in the human CD45 and CD19 markers; also recorded: greater decrease in the human leukemia markers when compared to doxorubicin-treated mice"},
      {"measurement": "white cell burden", "setting": "[3]", "result": "decrease in the white cell burden"},
      {"measurement": "human CD19 and IgM population in peripheral blood", "setting": "[4]", "result": "significant decrease in human CD19 and IgM population in peripheral blood"},
      {"measurement": "damaged DNA (comet tail)", "setting": "SupB15 cells [5]", "result": "increase in damaged DNA"},
      {"measurement": "γH2AX on the nascent chromatin", "setting": "SupB15 cells [6]", "result": "increase in γH2AX on the nascent chromatin"},
      {"measurement": "inhibition of Hdac1,2 activities compared to Hdac3 (IC50 values)", "setting": "Hdac1,2", "result": "very selectively"},
      {"measurement": "DNA damage, quantitation of γH2AX foci", "setting": "[7]", "result": "statistically significant increase in DNA damage"},
      {"measurement": "cell death", "setting": "[8]", "result": "did not cause any cell death"}
    ]},
    {"smiles": "COc1cccc2c1C(=O)c1c(O)c3c(c(O)c1C2=O)C[C@@](O)(C(=O)CO)C[C@@H]3O[C@H]1C[C@H](N)[C@H](O)[C@H](C)O1", "note": "[doxorubicin, reference compound]", "values": [
      {"measurement": "morphology of bone marrow and spleen cells", "setting": "[2]", "result": "No changes in the morphology of spleen or bone marrow cells; also recorded: no abnormalities or changes in the cell morphology in bone marrow or spleens"},
      {"measurement": "increase in the percentage of cells in G2/M phase", "setting": "Karpas-422 cells; 50 nM doxorubicin", "result": "1.5 to 2", "unit": "fold"},
      {"measurement": "cell death / sub-G1 population", "setting": "Karpas-422 cells; 2 μM ACY-957, 50 nM doxorubicin or both", "result": "modest increase in cell death"},
      {"measurement": "human CD45 and CD19 markers in bone marrow", "setting": "[3]", "result": "significant reduction in the human CD45 and CD19 markers"},
      {"measurement": "white cell burden", "setting": "[3]", "result": "decrease in the white cell burden"},
      {"measurement": "human CD19 and IgM population in peripheral blood", "setting": "[4]", "result": "no significant change in these markers"},
      {"measurement": "leukemia burden", "setting": "[9]", "result": "significantly decreased leukemia burden"},
      {"measurement": "DSBs, comet tail moment", "setting": "[10]", "result": "far less sensitive to doxorubicin"}
    ]}
  ]
}
